Experimental data as given in patent publication US20200354348A1, “SEMISYNTHETIC AURONES AND METHODS OF USE THEREOF” (University of Kentucky Research Foundation, priority 2018, published 2020).
pIC50: −log10 of the molar value. Entries after “also recorded” stand apart in the source; their conditions may differ.

What was measured:
MOLT-4 = assay: IC50 in leukemia cell lines; format: cell-based; details: Homo sapiens; Molt-4, T-ALL
Myc-induced T-ALL = assay: Anti-leukemia activity in the zebrafish model; format: in vivo
Procedure: Rag2:Myc-GFP zebrafish at 21 days of age were treated with DMSO, Aurone 4a, or 4r in 1.5 mL fish system water in 12-well plates. Zebrafish were treated with compound for 2 days, removed from drug for 1 day, and treated for two more days in fresh compound. Animals were imaged at the start and end of treatment using a fluorescence-equipped dissecting microscope at 350 ms exposure. The GFP image was overlaid onto the bright-field image of each animal in Photoshop, and the percent change in leukemia burden was calculated by normalizing the GFP+ area to the total area of the animal in ImageJ.

NCI-H522 = assay: NCI60 screening; format: cell-based; details: Homo sapiens, Non-Small Cell Lung Cancer
CCRF-CEM = assay: IC50 in leukemia cell lines; format: cell-based; details: Homo sapiens, T-ALL
tubulin = assay: In vitro tubulin polymerization assay; format: biochemical; details: 5 μM
Procedure: In vitro tubulin polymerization assay. The in vitro tubulin polymerization assay was performed by referring tubulin manufacturer's protocol. Briefly, tubulin powder (Cytoskeleton Inc. USA) was dissolved in cold buffer [100 mM PIPES (pH 6.9), 2 mM MgCl2, 1 mM GTP, and 5% glycerol] on ice. Then aliquots (80 μL, 3.75 μg/μL) of the obtained tubulin solution were divided into the wells of a 96-well half-area plate (Corning, USA). After adding DMSO or testing compounds, the plate was mounted to a Spectra MR™ microplate spectrophotometer equipped with a thermal controller allowing to adjust the temperature to 37° C. (DYNEX Technologies Limited, USA). Readings at 350 nm were recorded every 30 s for 1 hour.

Loucy = assay: IC50 in leukemia cell lines; format: cell-based; details: T-ALL
[1] = tested on: PC-3, LS174T and HEK293T cells; assay: Cell morphology; format: cell-based; details: 300 nM, 6 h
PC-3 tumor xenografts = assay: PC-3 xenografts in nude mice; format: in vivo; details: 10 mg/kg/day
Procedure: PC-3 cells suspended in PBS were subcutaneously injected to the lower flanks of immune-deficient nude mice at a density of 2×10^6 cells/200 ul (PBS). After tumor establishment, 4A formulated in tween80 (5%), DMSO (10%), PEG400 (25%) and PBS (60%) were administered in an intraperitoneal fashion to mice at a daily dose of 10 mg (compound)/kg (mouse). Blank vehicle was used as a control. Tumors and mouse weights were measured and tumor volumes were calculated as Length×width^2/2.

NCI/ADR-RES = assay: NCI60 screening; format: cell-based
SK-MEL-28 = assay: NCI60 screening; format: cell-based; details: Homo sapiens, Melanoma
Cdc2 (CDK1) = Cdc2 (CDK1) phosphorylation (FIG. 7B); format: cell-based
NCI-H226 = assay: NCI60 screening; format: cell-based; details: Homo sapiens, Non-Small Cell Lung Cancer
RPMI58402 = assay: IC50 in leukemia cell lines; format: cell-based; details: RPMI58402, T-ALL
PC-3 and LS174T cells = assay: Proliferation inhibition, Table 2; format: cell-based; details: Homo sapiens, read-out: inhibition at 300 nM concentrations
Procedure: Proliferation inhibition assay. Cancer cells were seeded into 24-well plates at a density of 20,000 cells per well in 1 mL of culture medium and cultured overnight at 37° C. Compounds and the vehicle control DMSO were added to the cells. After 6 days, medium was removed and 100 μL of trypsin was added. Then the cells resuspended in pbs were counted by Vi-CELL XR 2.03 (Beckman Coulter, Inc. USA). The ratio R of the number of viable cells in the compound treatment group to the number of viable cells in DMSO treatment group was taken as relative growth, and the percentage growth inhibition was calculated as: (1−R)*100. For initial testing, compounds were added to the cells at a final concentration 10 μM. Active compounds at 10 μM would be tested at lower concentrations.

OVCAR-4 = assay: NCI60 screening; format: cell-based; details: Homo sapiens, Ovarian Cancer
HCC1007-BL = assay: IC50 in leukemia cell lines; format: cell-based; details: Normal B-Lymphoblast

## CCn1cc(/C=C2\Oc3cc(OCC#N)ccc3C2=O)c2cc(OC)ccc21 [Aurone 4a, (Z)-2-((2-((1-Ethyl-5-methoxy-1H-indol-3-yl)methylene)-3-oxo-2,3-dihydrobenzofuran-6-yl)oxy)acetonitrile]
MOLT-4
  pIC50: 6.62
Myc-induced T-ALL
  gross toxicity on zebrafish: no gross toxicity was observed
Myc-induced T-ALL; 5 days
  inhibition of Myc-induced T-ALL: blocked the progress of T-ALL; also recorded: significant inhibition of Myc-induced T-ALL
Myc-induced T-ALL; percent change over treatment, p=0.0011 vs DMSO
  decrease in leukemia burden: 45.58%
NCI-H522
  GI50: 3130 nM
CCRF-CEM
  pIC50: 6.61
tubulin
  tubulin polymerization in vitro: inhibits tubulin polymerization
Loucy
  pIC50: 6.48
[1]
  cell morphology: Cell morphologies were changed
PC-3 tumor xenografts
  gross toxicity / body weights of treated mice: without significant effects on body weights; also recorded: no apparent gross toxicity; also recorded: no general toxicity
PC-3 tumor xenografts; intraperitoneal
  in vivo tumor inhibitory effect: inhibited PC-3 tumor xenografts; also recorded: significant, tumor-growth suppression
NCI/ADR-RES; NCI/ADR-RES
  cytotoxicity against multidrug-resistant cell line: potent cytotoxicity
NCI/ADR-RES; inferred from NCI/ADR-RES cells expressing P-glycoprotein
  substrate of P-glycoprotein: not likely a substrate of P-glycoprotein
SK-MEL-28
  GI50: 10200 nM
Cdc2 (CDK1)
  Cdc2 (CDK1) phosphorylation at tyrosine 15: decreasing phosphorylation at tyrosine 15
NCI-H226
  GI50: 57400 nM
RPMI58402
  pIC50: 6.52
PC-3 and LS174T cells
  inhibition at 0.3 µM: > 90%
OVCAR-4
  GI50: 19000 nM
HCC1007-BL
  pIC50: 5.86
